We go through nine compounds from patent US3981983A, “Rapid, radiochemical-ligand binding assay for methotrexate” (priority 1975, dated 1976).

Data set [1] in a line: Endogenous MTX level in serum and CSF of patients who had received MTX. Format: in vivo. Particulars: 6 hours to 6 days after oral, parenteral or intrathecal MTX. The procedure:
(§1) The samples in Table II were assayed by sequential binding procedures in accordance with the present invention, and they were assayed at multiple dilutions as previously described.

The target of data set [2] is T1, folic acid reductase (binder factor) (Cavia porcellus, UniProt H0VYF1).
T1 construct: NADPH as cofactor
T1 sequence (H0VYF1 1-187): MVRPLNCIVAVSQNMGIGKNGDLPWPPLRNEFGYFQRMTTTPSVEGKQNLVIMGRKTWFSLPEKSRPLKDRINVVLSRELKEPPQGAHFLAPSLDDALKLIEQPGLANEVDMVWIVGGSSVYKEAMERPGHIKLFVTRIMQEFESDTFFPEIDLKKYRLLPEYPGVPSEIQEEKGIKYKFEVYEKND
Nature of the data set: Cofactor dependency of ^3H-MTX binding. Particulars: for binding of ^3H-MTX with cofactor substituted for NADPH2: 1,000 times the optimal concentration of NADPH2; for inhibition of the MTX binding reaction: NADPH2 in slight excess, until concentration reached several thousand fold excess to NADPH2. More on the design: species or system guinea pig. As to the method:
(§2) The binder factor or folic acid reductase was prepared from guinea pig liver according to the method of Bertino et al, "Dihydrofolate Reductase From Guinea Pig Liver And Small Intestine,"Biochemical Pharmacology 15, pages 563 - 571, 1966 modified as noted below. The livers from freshly killed guinea pigs were rinsed in cold isotonic saline, suspended in 3 volumes (weight/volume) of the same, and homogenized in an Omnimixer (Sorvall, Inc.) for two minutes at 90 volts. The pH of the homogenate was adjusted to 5.1 with 1.0 N HCl. The homogenate was centrifuged at 12,000 × G for 15 minutes, and the pellet was discarded.
(§3) Ammonium sulfate was added to the supernatant to 55% of saturation at 4°C and, when necessary, the pH was adjusted to 6.0 with 1.0 N KOH. After standing for 30 minutes at 4°C, the precipitate was collected by centrifugation for 15 minutes at 12,000 × G and discarded. The supernatant was brought to a final ammonium sulfate concentration of 70% of saturation, again keeping the pH at 6.0, and stored overnight at 4°C. The resultant precipitate was recovered by centrifugation, as above, and dissolved in a minimal volume of 0.01 M potassium phosphate buffer, pH 7.0, which was 0.01 M with respect to KCl. The burgundy colored solution was applied to a Sephadex G-50 column (5 × 100 cm) equilibrated in 0.01 M potassium phosphate, pH 7.0, and 0.2 M KCl; the same buffer was used for elution of the sample.
The eluted material from the column was collected in 5 ml samples, and the binder factor or folic acid reductase eluted from the column behind the excluded volume which was marked by the hemoglobin peak. Sephadex permitted a rapid removal of ammonium sulfate and also gave a partial purification of the binder. Yields of 60% to 80% of the activity present in the crude homogenate were obtained with this methodology.
The maximum binding was identical to the binding observed in the presence of 0.1 μmole NADPH2.

The format of data set [3] is physicochemical. The settings on record: 4°C, buffer A pH 6.0 with albumin. As to the method:
The assay reaction is carried out in an aqueous solution of 0.01 M potassium phosphate, 0.15 M potassium chloride, pH 6.0, hereinafter referred to as buffer A. In the assay procedure, buffer A has added thereto about 1 mg of albumin per ml and other additons as noted.
As previously indicated, a binder cofactor comprising reduced nicotinamide adenine dinucleotide phosphate or NADPH2 was added to the reaction solution in the amounts noted below at the time of the assay.

Data set [4] addresses T1, folic acid reductase (binder factor). Nature of the data set: Direct binding of labeled folates to the binder preparation. On the set-up: species or system guinea pig. Particulars: at the concentration of reactants used in the standard curves. As to the method: as §2
as §3, with “The burgundy colored solution was applied to a Sephadex G-50 column (5 × 100 cm) equilibrated in 0.01 M potassium phosphate, pH 7.0, and 0.2 M KCl; the same buffer was used for elution of the sample.” left out

The target is the same in data set [5]. The data set can be described thus: Specificity of the binder: competition with ^3H-MTX in direct competitive and sequential binding assays. On the set-up: species or system guinea pig. The settings on record: other folate derivatives up to 200 fold excess relative to ^3H-MTX. As to the method: as §2, with “discarded. […]” for “discarded.”
At the end of the first incubation period, ^3 H-MTX was added and the incubation was continued for an additional 10 minutes. […] After centrifugation for 10 minutes at 2,000 - 3,000 × G to pellet the charcoal, the radioactivity in the clear supernatant was determined by liquid scintillation counting. […]
The specificity of the binder was determined by incubating the following compounds in direct competitive and sequential binding assays with ^3 H-MTX: pteroylmonoglutamate (Folic Acid, Nutritional Biochemicals); 5-methyltetrahydrofolic acid (Sigma Chemical Co.); 5-formyltetrahydrofolicacid (Leucovorin, Lederle Co.); adenosine, guanylic acid, para-aminobenzoylglutamate and 6-carboxypterin (Sigma Chemical Co.); pteroylheptaglutamate and aminopterin.

Data set [6] shares this target. The data set can be described thus: Reliability, recovery and sensitivity of the radiochemical ligand binding assay for MTX in serum and cerebrospinal fluid. On the set-up: species or system guinea pig. Particulars: presence of ascorbic acid. As to the method: as §1

With `CN(Cc1cnc2nc(N)nc(N)c2n1)c1ccc(C(=O)N[C@@H](CCC(=O)O)C(=O)O)cc1` [MTX, N-[p-(2,4-diamino-6-pteridylmethyl)methylaminobenzoyl]-glutamic acid], in data set [1], the “Endogenous MTX, CSF” value came out at 8 Nanograms per ml.
`NC(=O)c1ccc[n+]([C@@H]2O[C@H](COP(=O)([O-])OP(=O)(O)OC[C@H]3O[C@@H](n4cnc5c(N)ncnc54)[C@H](O)[C@@H]3O)[C@@H](O)[C@H]2O)c1` [NAD, nicotinamide adenine dinucleotide]: in data set [2], the “binding of ^3H-MTX with cofactor substituted for NADPH2” value is “did not allow binding of ^3 H-MTX” and the “inhibition of the MTX binding reaction” value is given as “did not inhibit the binding reaction”.
With `NC(=O)C1=CN([C@@H]2O[C@H](COP(=O)(O)OP(=O)(O)OC[C@H]3O[C@@H](n4cnc5c(N)ncnc54)[C@H](O)[C@@H]3O)[C@@H](O)[C@H]2O)C=CC1` [NADH], in data set [2] (concentrations up to 200,000 times the optimal amount of NADPH2), the “maximum binding of MTX obtained with cofactor substituted for NADPH2” value stood at 40%.
Take `NC(=O)c1ccc[n+]([C@@H]2O[C@H](COP(=O)([O-])OP(=O)(O)OC[C@H]3O[C@@H](n4cnc5c(N)ncnc54)[C@H](OP(=O)(O)O)[C@@H]3O)[C@@H](O)[C@H]2O)c1` [NADP, Nicotinamide adenine dinucleotide phosphate]: in data set [2], the “binding of ^3H-MTX with cofactor substituted for NADPH2” value is listed as “did not allow binding of ^3 H-MTX” and the “inhibition of the MTX binding reaction” value is given as “did not inhibit the binding reaction”.
For `NC(=O)C1=CN([C@@H]2O[C@H](COP(=O)(O)OP(=O)(O)OC[C@H]3O[C@@H](n4cnc5c(N)ncnc54)[C@H](OP(=O)(O)O)[C@@H]3O)[C@@H](O)[C@H]2O)C=CC1` [NADPH2, reduced nicotinamide adenine dinucleotide phosphate], in data set [3], the “stability in buffer A with albumin” value was “stable for several days”.
In the case of `Nc1nc2ncc(CNc3ccc(C(=O)N[C@@H](CCC(=O)O)C(=O)O)cc3)nc2c(=O)[nH]1` [^3 H-folic acid], the “binding of labeled folate by the binder preparation” value in data set [4] is “did not bind”.
Regarding `[14CH3]N1c2c([nH]c(N)nc2=O)NCC1CNc1ccc(C(=O)N[C@@H](CCC(=O)O)C(=O)O)cc1` (some centres unmarked) [^14 C-5-methyltetrahydrofolic acid], in data set [4], the “binding of labeled folate by the binder preparation” value is on record as “did not bind”.
Turning to `Nc1nc(N)c2nc(CNc3ccc(C(=O)N[C@@H](CCC(=O)O)C(=O)O)cc3)cnc2n1` [aminopterin, N-{p-[(2,4-diamino-6-pteridylmethyl)amino]benzoyl}-glutamic acid], in data set [5], the “competition for ^3H-MTX binding sites” value is listed as “competed for ^3 H-MTX binding sites”.
In the case of `O=C1O[C@H]([C@@H](O)CO)C(O)=C1O` [ascorbic acid], the “effect on the assay” value in data set [6] was “did not affect the assay”.
